From US20240400555A1 (Initial Therapeutics, Inc., priority 2023, published 2024)

System: MV-4-11 cells
Test: Cell Viability Assay in MV-4-11 Cells
Assay type: cell-based
Conditions: Homo sapiens, MV4-11, 72 h, MV-4-11 cells, 72 h, Cell-Titer Glo; read-out: IC50
Outline: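 MV-4-11 cells at 7,000/well in IMDM with 10% FBS, exposed to compound for 72 h. Viability by CellTiter-Glo luminescence, normalized to DMSO as 100%, fitted with a four-parameter curve.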

SMILES	IC50 [nM]
NC(=O)Cc1cccc(-c2cc3c(N(C(=O)c4ccc(-n5nnc6cccnc65)cc4F)[C@@H]4CCCNC4)nccc3s2)c1 [Example 447, N-[2-[3-(2-amino-2-oxo-ethyl)phenyl]thieno[3,2-c]pyridin-4-yl]-2-fluoro-N-[(3R)-3-piperidyl]-4-(triazolo[4,5-b]pyridin-3-yl)benzamide]	110
NC(=O)c1ccc(-c2cc3c(N(C(=O)c4ccc(-n5nnc6cccnc65)cc4F)[C@@H]4CCCNC4)nccc3s2)cc1 [Example 448, N-[2-(4-carbamoylphenyl)thieno[3,2-c]pyridin-4-yl]-2-fluoro-N-[(3R)-3-piperidyl]-4-(triazolo[4,5-b]pyridin-3-yl)benzamide]	52
O=C(c1ccc(-n2nnc3cccnc32)cc1F)N(c1nccc2sc(-c3cccc(-c4ncco4)c3)cc12)[C@@H]1CCCNC1 [Example 449, 2-fluoro-N-[2-(3-oxazol-2-ylphenyl)thieno [3,2-c]pyridin-4-yl]-N-[(3R)-3-piperidyl]-4-(triazolo [4,5-b]pyridin-3-yl) benzamide]	940
O=C(c1ccc(-n2nnc3cccnc32)cc1F)N(c1nccc2sc(-c3nc4ccccn4n3)cc12)[C@@H]1CCCNC1 [Example 450, 2-fluoro-N-[(3R)-3-piperidyl]-N-[2-([1,2,4]triazolo[1,5-a]pyridin-2-yl)thieno[3,2-c]pyridin-4-yl]-4-(triazolo[4,5-b]pyridin-3-yl)benzamide]	300
O=C(c1ccc(-n2nnc3cccnc32)cc1F)N(c1nccc2sc(-c3cnccn3)cc12)[C@@H]1CCCNC1 [Example 451, 2-fluoro-N-[(3R)-3-piperidyl]-N-(2-pyrazin-2-ylthieno[3,2-c]pyridin-4-yl)-4-(triazolo[4,5-b]pyridin-3-yl)benzamide]	250
NC(=O)c1cccc(-c2cc3c(N(C(=O)c4ccc(-n5nnc6cccnc65)cc4F)[C@@H]4CCCNC4)nccc3s2)c1 [Example 452, N-[2-(3-carbamoylphenyl)thieno[3,2-c]pyridin-4-yl]-2-fluoro-N-[(3R)-3-piperidyl]-4-(triazolo[4,5-b]pyridin-3-yl)benzamide]	180
NC(=O)c1ccc2c(N(C(=O)c3ccc(-n4nnc5cccnc54)cc3F)[C@@H]3CCCNC3)nccc2c1 [Example 453, (R)-1-(4-(3H-[1,2,3]triazolo[4,5-b]pyridin-3-yl)-2-fluoro-N-(piperidin-3-yl)benzamido)isoquinoline-6-carboxamide]	200
O=C(c1ccc(-n2nnc3cccnc32)cc1F)N(c1nccc2sc(-c3ccc(C(F)(F)F)nc3)cc12)[C@@H]1CCCNC1 [Example 454, 2-fluoro-N-[(3R)-3-piperidyl]-4-(triazolo[4,5-b]pyridin-3-yl)-N-[2-[6-(trifluoromethyl)-3-pyridyl]thieno[3,2-c]pyridin-4-yl]benzamide]	1000
O=C(c1ccc(-n2nnc3cccnc32)cc1F)N(c1nccc2sc(-c3ccnnc3)cc12)[C@@H]1CCCNC1 [Example 455, 2-fluoro-N-[(3R)-3-piperidyl]-N-(2-pyridazin-4-ylthieno[3,2-c]pyridin-4-yl)-4-(triazolo[4,5-b]pyridin-3-yl)benzamide]	650
O=C(c1ccc(-n2nnc3cccnc32)cc1F)N(c1nccc2sc(-c3ccncn3)cc12)[C@@H]1CCCNC1 [Example 456, 2-fluoro-N-[(3R)-3-piperidyl]-N-(2-pyrimidin-4-ylthieno[3,2-c]pyridin-4-yl)-4-(triazolo[4,5-b]pyridin-3-yl)benzamide]	380
Nc1nccc(-c2cc3c(N(C(=O)c4ccc(-n5nnc6cccnc65)cc4F)[C@@H]4CCCNC4)nccc3s2)n1 [Example 457, N-[2-(2-aminopyrimidin-4-yl)thieno[3,2-c]pyridin-4-yl]-2-fluoro-N-[(3R)-3-piperidyl]-4-(triazolo[4,5-b]pyridin-3-yl)benzamide]	290
